Series [1] concerns the target T1, Metabotropic glutamate receptor 5 (Homo sapiens, UniProt P41594). Briefly: Negative allosteric modulation of human mGlu5 receptor assessed as inhibition of glutamate induced-calcium mobilization. In kind it is functional.
Target sequence in this assay (P41594 whole entry): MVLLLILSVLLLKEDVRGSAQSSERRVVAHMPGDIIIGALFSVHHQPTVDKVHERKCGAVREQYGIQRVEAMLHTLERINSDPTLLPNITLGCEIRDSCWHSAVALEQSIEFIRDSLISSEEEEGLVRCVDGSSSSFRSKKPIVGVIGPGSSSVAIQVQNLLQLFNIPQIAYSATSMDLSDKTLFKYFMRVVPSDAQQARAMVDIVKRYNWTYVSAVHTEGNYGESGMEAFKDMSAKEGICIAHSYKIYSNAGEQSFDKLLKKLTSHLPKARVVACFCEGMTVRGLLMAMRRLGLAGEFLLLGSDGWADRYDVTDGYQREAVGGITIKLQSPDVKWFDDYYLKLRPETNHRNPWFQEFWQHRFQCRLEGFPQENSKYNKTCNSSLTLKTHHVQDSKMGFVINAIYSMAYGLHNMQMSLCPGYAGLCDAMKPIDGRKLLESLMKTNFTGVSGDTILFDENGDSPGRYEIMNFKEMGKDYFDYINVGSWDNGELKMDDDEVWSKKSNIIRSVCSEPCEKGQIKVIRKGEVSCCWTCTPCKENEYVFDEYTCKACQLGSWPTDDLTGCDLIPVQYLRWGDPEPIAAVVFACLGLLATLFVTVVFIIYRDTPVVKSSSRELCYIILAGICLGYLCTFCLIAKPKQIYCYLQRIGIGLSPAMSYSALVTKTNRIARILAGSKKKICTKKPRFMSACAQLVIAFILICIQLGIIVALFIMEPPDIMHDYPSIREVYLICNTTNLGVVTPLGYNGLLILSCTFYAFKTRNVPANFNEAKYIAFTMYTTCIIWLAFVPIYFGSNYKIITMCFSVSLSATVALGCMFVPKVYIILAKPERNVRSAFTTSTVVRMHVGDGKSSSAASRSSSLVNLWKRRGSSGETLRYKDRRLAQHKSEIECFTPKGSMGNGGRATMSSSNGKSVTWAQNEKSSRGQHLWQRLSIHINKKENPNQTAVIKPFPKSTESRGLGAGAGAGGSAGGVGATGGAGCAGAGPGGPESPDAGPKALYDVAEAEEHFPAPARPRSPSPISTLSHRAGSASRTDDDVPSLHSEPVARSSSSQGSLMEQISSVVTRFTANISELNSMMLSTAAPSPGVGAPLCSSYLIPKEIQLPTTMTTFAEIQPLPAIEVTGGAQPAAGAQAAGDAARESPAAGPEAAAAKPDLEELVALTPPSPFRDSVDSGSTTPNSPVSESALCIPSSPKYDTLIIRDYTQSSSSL
Series [2] addresses T1, Metabotropic glutamate receptor 5. In words: Negative allosteric modulation of human mGlu5 receptor assessed as inhibition of glutamate induced-calcium mobilization relative to glutamate. In kind it is functional.
Target sequence in this assay (P41594 21-1212 limits assumed): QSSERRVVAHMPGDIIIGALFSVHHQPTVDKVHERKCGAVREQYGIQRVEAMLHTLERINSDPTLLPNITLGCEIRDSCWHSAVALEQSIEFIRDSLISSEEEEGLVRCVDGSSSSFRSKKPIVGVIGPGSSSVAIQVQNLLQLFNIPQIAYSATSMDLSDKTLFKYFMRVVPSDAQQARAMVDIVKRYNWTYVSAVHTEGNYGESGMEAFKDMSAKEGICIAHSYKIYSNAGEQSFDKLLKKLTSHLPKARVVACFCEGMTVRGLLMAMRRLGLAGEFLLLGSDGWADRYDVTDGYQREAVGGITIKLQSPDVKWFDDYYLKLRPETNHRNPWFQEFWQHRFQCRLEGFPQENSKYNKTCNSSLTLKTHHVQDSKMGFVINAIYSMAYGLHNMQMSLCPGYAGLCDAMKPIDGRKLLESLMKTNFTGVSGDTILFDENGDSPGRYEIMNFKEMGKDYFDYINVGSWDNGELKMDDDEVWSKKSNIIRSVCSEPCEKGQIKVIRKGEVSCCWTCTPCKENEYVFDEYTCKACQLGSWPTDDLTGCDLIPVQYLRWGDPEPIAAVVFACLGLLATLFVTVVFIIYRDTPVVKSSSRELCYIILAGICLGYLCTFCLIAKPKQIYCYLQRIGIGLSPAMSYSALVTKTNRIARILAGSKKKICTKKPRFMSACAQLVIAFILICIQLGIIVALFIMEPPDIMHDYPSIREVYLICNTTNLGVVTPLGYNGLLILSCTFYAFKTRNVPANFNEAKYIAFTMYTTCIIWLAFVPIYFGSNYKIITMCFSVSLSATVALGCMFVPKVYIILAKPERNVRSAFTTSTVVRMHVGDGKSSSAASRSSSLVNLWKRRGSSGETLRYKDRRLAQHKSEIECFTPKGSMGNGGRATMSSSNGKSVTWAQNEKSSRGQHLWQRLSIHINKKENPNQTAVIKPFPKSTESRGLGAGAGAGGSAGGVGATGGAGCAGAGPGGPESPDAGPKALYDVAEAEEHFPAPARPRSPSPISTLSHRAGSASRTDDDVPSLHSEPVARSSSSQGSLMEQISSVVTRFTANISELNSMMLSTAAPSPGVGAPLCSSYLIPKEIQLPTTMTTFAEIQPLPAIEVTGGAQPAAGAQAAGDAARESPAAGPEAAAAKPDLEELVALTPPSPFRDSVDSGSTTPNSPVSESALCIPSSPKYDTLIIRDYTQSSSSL
Series [3] can be described thus: Unbound fraction in rat plasma. In kind it is ADME, cell-free.
The nature of series [4]: Unbound fraction in human plasma. In kind it is ADME, cell-free.
In another series the target is Cytochrome P450 3A4 (Homo sapiens, UniProt P08684). In words: Inhibition of CYP3A4 (unknown origin). Type of series: ADME.
Sequence of Cytochrome P450 3A4 (P08684 whole entry): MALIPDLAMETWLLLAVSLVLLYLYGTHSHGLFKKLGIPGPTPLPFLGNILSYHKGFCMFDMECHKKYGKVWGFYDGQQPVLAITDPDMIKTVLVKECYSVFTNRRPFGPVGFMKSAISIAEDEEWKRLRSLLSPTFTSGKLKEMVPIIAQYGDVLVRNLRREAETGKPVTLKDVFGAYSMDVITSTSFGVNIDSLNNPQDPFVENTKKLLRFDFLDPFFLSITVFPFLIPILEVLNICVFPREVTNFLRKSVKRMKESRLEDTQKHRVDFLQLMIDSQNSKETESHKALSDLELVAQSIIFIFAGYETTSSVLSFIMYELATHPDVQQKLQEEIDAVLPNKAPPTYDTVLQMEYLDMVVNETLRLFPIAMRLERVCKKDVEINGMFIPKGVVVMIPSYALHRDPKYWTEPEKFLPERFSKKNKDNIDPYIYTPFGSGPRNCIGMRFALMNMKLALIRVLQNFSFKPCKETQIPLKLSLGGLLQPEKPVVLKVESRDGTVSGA
The target in the next series is Cytochrome P450 2D6 (Homo sapiens, UniProt P10635). In words: Inhibition of CYP2D6 (unknown origin). Type of series: ADME.
Sequence of Cytochrome P450 2D6 (P10635 whole entry): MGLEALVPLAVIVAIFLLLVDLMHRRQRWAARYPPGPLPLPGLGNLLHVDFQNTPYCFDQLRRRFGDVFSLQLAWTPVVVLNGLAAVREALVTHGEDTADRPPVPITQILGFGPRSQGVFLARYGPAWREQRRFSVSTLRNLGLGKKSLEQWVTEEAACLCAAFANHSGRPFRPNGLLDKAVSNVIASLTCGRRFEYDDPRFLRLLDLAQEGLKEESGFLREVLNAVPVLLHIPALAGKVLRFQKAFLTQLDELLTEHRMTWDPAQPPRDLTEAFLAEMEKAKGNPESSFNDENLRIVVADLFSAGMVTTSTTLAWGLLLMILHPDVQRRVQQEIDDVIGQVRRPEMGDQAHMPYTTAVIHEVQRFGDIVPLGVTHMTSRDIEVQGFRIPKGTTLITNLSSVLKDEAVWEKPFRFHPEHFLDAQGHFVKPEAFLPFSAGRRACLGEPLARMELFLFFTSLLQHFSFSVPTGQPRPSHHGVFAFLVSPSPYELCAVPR
For the next series, the target named is T2, Cytochrome P450 1A2 (Homo sapiens, UniProt P05177).
T2 sequence (P05177 whole entry): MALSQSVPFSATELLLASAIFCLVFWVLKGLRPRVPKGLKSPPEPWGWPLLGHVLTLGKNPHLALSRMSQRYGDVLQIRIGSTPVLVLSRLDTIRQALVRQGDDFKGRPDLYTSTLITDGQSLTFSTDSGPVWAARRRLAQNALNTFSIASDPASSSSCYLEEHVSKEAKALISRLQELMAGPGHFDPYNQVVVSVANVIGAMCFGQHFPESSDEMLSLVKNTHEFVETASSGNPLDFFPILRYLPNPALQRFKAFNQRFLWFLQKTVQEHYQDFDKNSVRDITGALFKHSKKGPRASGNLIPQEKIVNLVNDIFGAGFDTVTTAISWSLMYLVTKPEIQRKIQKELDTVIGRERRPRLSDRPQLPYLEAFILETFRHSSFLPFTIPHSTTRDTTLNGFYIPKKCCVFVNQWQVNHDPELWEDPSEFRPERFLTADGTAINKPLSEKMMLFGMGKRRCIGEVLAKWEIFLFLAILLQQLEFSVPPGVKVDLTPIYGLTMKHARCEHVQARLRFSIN
In words: Inhibition of CYP1A2 (unknown origin). Type of series: ADME.

In another series the target is Cytochrome P450 2C9 (Homo sapiens, UniProt P11712). Briefly: Inhibition of CYP2C9 (unknown origin). Type of series: ADME.
Sequence of Cytochrome P450 2C9 (P11712 whole entry): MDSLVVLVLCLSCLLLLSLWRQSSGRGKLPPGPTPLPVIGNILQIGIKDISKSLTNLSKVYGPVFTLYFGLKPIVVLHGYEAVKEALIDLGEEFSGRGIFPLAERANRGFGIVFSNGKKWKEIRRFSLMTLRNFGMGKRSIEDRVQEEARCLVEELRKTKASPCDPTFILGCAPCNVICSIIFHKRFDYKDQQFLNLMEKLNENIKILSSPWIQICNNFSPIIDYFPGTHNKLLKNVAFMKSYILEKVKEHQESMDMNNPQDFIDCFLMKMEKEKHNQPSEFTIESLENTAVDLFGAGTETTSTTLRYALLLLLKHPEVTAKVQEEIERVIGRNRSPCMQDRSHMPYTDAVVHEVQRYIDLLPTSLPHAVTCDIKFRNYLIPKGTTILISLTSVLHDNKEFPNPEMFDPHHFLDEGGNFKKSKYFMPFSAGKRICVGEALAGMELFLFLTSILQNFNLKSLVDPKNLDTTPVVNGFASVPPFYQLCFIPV
Series [5] can be described thus: Half life in rat at 0.2 mg/kg, iv. Type of series: ADME, organism-based. To be noted: in vivo.
Series [6] can be described thus: Plasma clearance in rat at 0.2 mg/kg, iv. Type of series: ADME, organism-based.
Series [7] is described as follows: Volume of distribution at steady state in rat at 0.2 mg/kg, iv. In kind it is ADME, organism-based. To be noted: in vivo, read-out: Vdss.
A short description of series [8]: Drug metabolism in rat S9 fraction assessed as NADPH-dependent oxidation of furanyl moiety. Type of series: ADME, subcellular.
Series [9] can be described thus: Drug metabolism in dog S9 fraction assessed as NADPH-dependent oxidation of furanyl moiety. Type of series: ADME, subcellular, Canis lupus familiaris.
Series [10] is described as follows: Drug metabolism in human S9 fraction assessed as NADPH-dependent oxidation of furanyl moiety. In kind it is ADME, subcellular.
Series [11] in a line: Brain to plasma partition coefficient, Kp in rat. In kind it is ADME, organism-based.

Consider `Cc1cc(O[C@@H]2CCOC2)cc(C(=O)Nc2nc(C)cs2)n1`, for which, in series [1], the 50% inhibitory concentration (IC50) amounted to 28 nM. For the same molecule, the Efficacy in [2] is 1.3%. In series [3], this molecule registered a fraction unbound of 0.11. In [4], this molecule gave a Fu of 0.08. Further, the INH on Cytochrome P450 3A4 was 30 µM; at Cytochrome P450 2D6, more than 30 µM; on Cytochrome P450 1A2 it was 0.3 µM; at Cytochrome P450 2C9, more than 30 µM. The molecule also came in with a half-life in series [5] of 63 min. The molecule further registered a clearance in series [6] of 34 mL/min/kg. Also, the Vd in series [7] came out at 2.7 L/kg. The Drug metabolism entry in series [8], in series [9] and in series [10] was “Metabolite_Detected” throughout.
`Cc1cc(OC2COC2)cc(C(=O)Nc2ccc(F)cn2)n1`: the IC50 in series [1] amounted to 228 nM. The Efficacy in series [2] amounted to 1.1%. Further, the Fu in series [3] and in series [4] was 0.16 throughout. Besides, the INH on Cytochrome P450 3A4 was more than 30 µM; on Cytochrome P450 2D6 it was more than 30 µM; at Cytochrome P450 1A2, 5.8 µM; on Cytochrome P450 2C9, more than 30 µM. Besides, the half-life in series [5] was determined as 28 min. The molecule also showed a clearance in series [6] of 179 mL/min/kg. For the same molecule, the Vd in series [7] came to 4.5 L/kg.
As to `CO[C@H](C)COc1cc(C)nc(C(=O)Nc2nc(C)cs2)c1`, in series [1], the IC50 was 145 nM. In addition, the Fu in [3] worked out at 0.09; in [4], 0.07.
With `Cc1cc(O[C@@H]2CCOC2)cc(C(=O)Nc2ccc(F)cn2)n1`, in series [1], the IC50 was 38 nM. Also, the Efficacy in series [2] is 1.7%. Moreover, the Fu amounted to 0.26 in [3] and 0.07 in series [4]. Moreover, the INH at Cytochrome P450 3A4, on Cytochrome P450 2D6, at Cytochrome P450 1A2 and on Cytochrome P450 2C9 was more than 30 µM throughout. Further, in series [5], the half-life was found to be 46 min. In series [6], this molecule showed a clearance of 136 mL/min/kg. In series [7], the Vd amounted to 5.5 L/kg.
As to `Cc1cc(O[C@H]2CO[C@H](C)C2)cc(C(=O)Nc2nc(C)cs2)n1`, the concentration for half-maximal inhibition (IC50) in [1] worked out at 81 nM. The Efficacy in series [2] was determined as 1.2%. Moreover, the fraction unbound in series [3] was 0.1; in series [4], 0.05. Moreover, the Kp in series [11] was 2.2.
For `Cc1cc(O[C@@H]2CCOC2)cc(C(=O)Nc2ccccn2)n1`, the IC50 in series [1] stood at 23 nM. Also, the Efficacy in series [2] was found to be 1.7%.
Regarding `Cc1cc(O[C@H]2CCOC2)cc(C(=O)Nc2ccc(F)cn2)n1`, the IC50 in series [1] is 657 nM. The Efficacy in [2] is 1%.
